Test results: the supplement of paper PMC8960247
Structures can show the parent of a compound that is named as a salt. ± gives the standard error.

The molecules below were run on 621-103 (TSC2-rescued) (assay: relative viability vs DMSO; higher = less cytotoxic). Conditions: 0.1 µM; serum: 10% FBS; 72 h.
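Note: immortalized renal angiomyolipoma cells stably carrying empty vector or TSC2, dosed in 384-well plates in DMEM, viability normalized to vehicle-treated wells within each plate.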

**Q.** How did the relative viability turn out when `CCC(C)n1ncn(-c2ccc(N3CCN(c4ccc(OCC5COC(Cn6cncn6)(c6ccc(Cl)cc6Cl)O5)cc4)CC3)cc2)c1=O` (configuration not stated) [Itraconazole (Sporanox)] was run?
**A.** 97.5 ± 6.4%

**Q.** How did the relative viability turn out when `CCCNC(=O)Nc1ccc(Oc2ncnc3cc(OC)c(OC)cc23)cc1Cl` [KRN 633] was run?
**A.** 96.9 ± 1.9%

**Q.** For `O=C(c1ccc(/C=C/c2n[nH]c3ccccc23)cc1)N1CCNCC1` [KW 2449], which relative viability is on record?
**A.** 102 ± 1.6%

**Q.** `O=C(c1ccc(F)cc1)C1CCN(CCn2c(=O)[nH]c3ccccc3c2=O)CC1` [Ketanserin (Vulketan Gel)] was tested. Which relative viability did it give?
**A.** 105.8 ± 0.41%

**Q.** With `O=C(c1ccccc1)c1ccc2n1CCC2C(=O)O` (configuration not stated) [Ketorolac] as the molecule, how does the relative viability read?
**A.** 112 ± 3.3%

**Q.** With `CCCCCCCCCCCCCCCC(=O)OC[C@H](O)[C@H]1OC(=O)C(O)=C1O` [L-Ascorbyl 6-palmitate] as the molecule, how does the relative viability read?
**A.** 100 ± 2.4%

**Q.** `Cc1[nH]c2ccccc2c1CCNCc1ccc(/C=C/C(=O)NO)cc1` [LBH-589 (Panobinostat)] was tested. Which relative viability did it give?
**A.** 4.57 ± 0.076%

**Q.** Which relative viability does the source give for `Cc1c(C(=O)Nc2ccc(N3C[C@@H](C)O[C@@H](C)C3)nc2)cccc1-c1ccc(OC(F)(F)F)cc1` [LDE225] here?
**A.** 115.8 ± 0.72%

**Q.** `CS(=O)(=O)CCNCc1ccc(-c2ccc3ncnc(Nc4ccc(OCc5cccc(F)c5)c(Cl)c4)c3c2)o1` [Lapatinib Ditosylate] was tested. Which relative viability did it give?
**A.** 101 ± 3.3%

**Q.** `Nc1cccc2c1CN(C1CCC(=O)NC1=O)C2=O` (configuration not stated) [Lenalidomide] was tested. Which relative viability did it give?
**A.** 100.4 ± 0.81%

**Q.** With `N#Cc1ccc(C(c2ccc(C#N)cc2)n2cncn2)cc1` [Letrozole] as the molecule, how does the relative viability read?
**A.** 99.5 ± 1%

**Q.** How did the relative viability turn out when `CC(=O)NC[C@H]1CN(c2ccc(N3CCOCC3)c(F)c2)C(=O)O1` [Linezolid] was run?
**A.** 101 ± 0.73%

**Q.** `CN(C)C(=O)C(CCN1CCC(O)(c2ccc(Cl)cc2)CC1)(c1ccccc1)c1ccccc1` [Loperamide HCl] was tested. Which relative viability did it give?
**A.** 98.2 ± 1.8%

**Q.** Which relative viability does the source give for `O=c1cc(-c2ccc(O)c(O)c2)oc2cc(O)cc(O)c12` [Luteolin (Luteolol)] here?
**A.** 100 ± 3.7%

**Q.** For `Cn1cc(/C=C/C(=O)c2cccc(F)c2)cc1/C=C/C(=O)NO` [MC1568], which relative viability is on record?
**A.** 98.5 ± 1.1%

**Q.** With `CC(C)C[C@@H](C=O)NC(=O)[C@H](CC(C)C)NC(=O)[C@H](CC(C)C)NC(=O)OCc1ccccc1` [MG-132] as the molecule, how does the relative viability read?
**A.** 53.7 ± 8.3%

**Q.** How did the relative viability turn out when `Nc1ccccc1NC(=O)c1ccc(CNc2nccc(-c3cccnc3)n2)cc1` [MGCD0103 (Mocetinostat)] was run?
**A.** 93.1 ± 2.1%

**Q.** For `O=C(CN1C(=O)C2(CCCC2)NC[C@H]1c1cc(F)cc(F)c1)Nc1ccc2c(c1)C[C@@]1(C2)C(=O)Nc2ncccc21` [MK 3207 hydrochloride], which relative viability is on record?
**A.** 101.2 ± 0.77%

**Q.** Which relative viability does the source give for `O=C(O)CC[C@H]1CC[C@@](c2cc(F)ccc2F)(S(=O)(=O)c2ccc(Cl)cc2)CC1` [MK-0752] here?
**A.** 111.21 ± 0.076%

**Q.** How did the relative viability turn out when `NC1(c2ccc(-c3nc4ccn5c(=O)[nH]nc5c4cc3-c3ccccc3)cc2)CCC1` [MK-2206] was run?
**A.** 77.6 ± 1.3%

**Q.** For `S=C(NCc1ccc2c(c1)OCO2)N1CCN(c2ncnc3c2oc2ccccc23)CC1` [MP-470], which relative viability is on record?
**A.** 106 ± 1.4%

**Q.** How did the relative viability turn out when `Nc1ccccc1NC(=O)c1ccc(CNC(=O)OCc2cccnc2)cc1` [MS-275] was run?
**A.** 95.9 ± 1.2%

**Q.** With `COC(=O)C1=C(C)NC(C)=C(C(=O)OCCN2CCN(C(c3ccccc3)c3ccccc3)CC2)C1c1cccc([N+](=O)[O-])c1` (configuration not stated) [Manidipine HCl (CV-4093)] as the molecule, how does the relative viability read?
**A.** 100.85 ± 0.1%

**Q.** How did the relative viability turn out when `COC(=O)C1=C(C)NC(C)=C(C(=O)OCCN2CCN(C(c3ccccc3)c3ccccc3)CC2)C1c1cccc([N+](=O)[O-])c1` (configuration not stated) [Manidipine] was run?
**A.** 108 ± 2.5%

**Q.** With `CNCCCC12CCC(c3ccccc31)c1ccccc12` [Maprotiline HCl] as the molecule, how does the relative viability read?
**A.** 95.4 ± 4.2%

**Q.** With `Cc1nnc(C(C)C)n1[C@H]1C[C@H]2CC[C@@H](C1)N2CC[C@H](NC(=O)C1CCC(F)(F)CC1)c1ccccc1` [Maraviroc (Selzentry)] as the molecule, how does the relative viability read?
**A.** 103 ± 2.9%

**Q.** Which relative viability does the source give for `Cc1ccc(NC(=O)c2ccc(CN3CCN(C)CC3)cc2)cc1Nc1nc(-c2cccnc2)cs1` [Masitinib (AB1010)] here?
**A.** 103 ± 2.9%

**Q.** How did the relative viability turn out when `Cc1[nH]c(=O)c(C#N)cc1-c1ccncc1` [Milrinone (Primacor)] was run?
**A.** 91.8 ± 3.8%

**Q.** With `O=C1c2c(O)ccc(O)c2C(=O)c2c(NCCNCCO)ccc(NCCNCCO)c21` [Mitoxantrone] as the molecule, how does the relative viability read?
**A.** 36.95 ± 0.31%

**Q.** With `NC(=O)c1ncn([C@@H]2O[C@H](CO)[C@@H](O)[C@H]2O)c1O` [Mizoribine] as the molecule, how does the relative viability read?
**A.** 105 ± 3.8%

**Q.** With `N=C(N)NC(=N)N1CCOCC1` [Moroxydine] as the molecule, how does the relative viability read?
**A.** 92.5 ± 0.95%

**Q.** How did the relative viability turn out when `CC1(C)CNc2cc(NC(=O)c3cccnc3NCc3ccncc3)ccc21` [Motesanib DiPhosphate] was run?
**A.** 102 ± 1.3%

**Q.** Which relative viability does the source give for `FC(F)(F)c1ccc(/C=C/c2nc(COc3ccc(CCCCn4ccnn4)cc3)co2)cc1` [Mubritinib (TAK 165)] here?
**A.** 112 ± 1.4%

**Q.** `CC(C)(C)c1[nH]cnc1/C=c1\[nH]c(=O)/c(=C/c2ccccc2)[nH]c1=O` [NPI-2358] was tested. Which relative viability did it give?
**A.** 36.2 ± 0.99%

**Q.** For `CC(C)(Cc1ccc2ccccc2c1)NC[C@@H](O)COc1cccc(Cl)c1C#N` [NPS-2143], which relative viability is on record?
**A.** 114 ± 2.6%

**Q.** How did the relative viability turn out when `CCNC(=O)c1noc(-c2cc(C(C)C)c(O)cc2O)c1-c1ccc(CN2CCOCC2)cc1` [NVP-AUY922] was run?
**A.** 5.21 ± 0.31%

**Q.** Which relative viability does the source give for `CCNC(=O)c1cc2c(-c3cc(OCCN4CCCC4)c(Cl)cc3Cl)nc(N)nc2s1` [NVP-BEP800] here?
**A.** 107 ± 2%

**Q.** How did the relative viability turn out when `Fc1cc(-c2cccc3ncc(-c4cnn(C5CCNCC5)c4)nc23)cc(F)c1CN1CCOCC1` [NVP-BSK805 dihydrochloride] was run?
**A.** 104 ± 4.5%

Same assay, conditions: 1 µM; serum: 10% FBS; 72 h

**Q.** With `CCC(C)n1ncn(-c2ccc(N3CCN(c4ccc(OCC5COC(Cn6cncn6)(c6ccc(Cl)cc6Cl)O5)cc4)CC3)cc2)c1=O` (configuration not stated) [Itraconazole (Sporanox)] as the molecule, how does the relative viability read?
**A.** 70.71 ± 0.48%

**Q.** How did the relative viability turn out when `CCCNC(=O)Nc1ccc(Oc2ncnc3cc(OC)c(OC)cc23)cc1Cl` [KRN 633] was run?
**A.** 90.3 ± 3.6%

**Q.** With `O=C(c1ccc(/C=C/c2n[nH]c3ccccc23)cc1)N1CCNCC1` [KW 2449] as the molecule, how does the relative viability read?
**A.** 96.784 ± 0.018%

**Q.** How did the relative viability turn out when `O=C(c1ccc(F)cc1)C1CCN(CCn2c(=O)[nH]c3ccccc3c2=O)CC1` [Ketanserin (Vulketan Gel)] was run?
**A.** 107 ± 1.4%

**Q.** `O=C(c1ccccc1)c1ccc2n1CCC2C(=O)O` (configuration not stated) [Ketorolac] was tested. Which relative viability did it give?
**A.** 98.25 ± 0.73%

**Q.** How did the relative viability turn out when `CCCCCCCCCCCCCCCC(=O)OC[C@H](O)[C@H]1OC(=O)C(O)=C1O` [L-Ascorbyl 6-palmitate] was run?
**A.** 97.4 ± 2.1%

**Q.** `Cc1[nH]c2ccccc2c1CCNCc1ccc(/C=C/C(=O)NO)cc1` [LBH-589 (Panobinostat)] was tested. Which relative viability did it give?
**A.** 1.66 ± 0.2%

**Q.** How did the relative viability turn out when `Cc1c(C(=O)Nc2ccc(N3C[C@@H](C)O[C@@H](C)C3)nc2)cccc1-c1ccc(OC(F)(F)F)cc1` [LDE225] was run?
**A.** 116 ± 6.1%

**Q.** `CS(=O)(=O)CCNCc1ccc(-c2ccc3ncnc(Nc4ccc(OCc5cccc(F)c5)c(Cl)c4)c3c2)o1` [Lapatinib Ditosylate] was tested. Which relative viability did it give?
**A.** 99.1 ± 4%

**Q.** For `Nc1cccc2c1CN(C1CCC(=O)NC1=O)C2=O` (configuration not stated) [Lenalidomide], which relative viability is on record?
**A.** 100.5 ± 0.13%

**Q.** Which relative viability does the source give for `N#Cc1ccc(C(c2ccc(C#N)cc2)n2cncn2)cc1` [Letrozole] here?
**A.** 102.6 ± 0.18%

**Q.** Which relative viability does the source give for `CC(=O)NC[C@H]1CN(c2ccc(N3CCOCC3)c(F)c2)C(=O)O1` [Linezolid] here?
**A.** 103 ± 1.3%

**Q.** For `CN(C)C(=O)C(CCN1CCC(O)(c2ccc(Cl)cc2)CC1)(c1ccccc1)c1ccccc1` [Loperamide HCl], which relative viability is on record?
**A.** 92.17 ± 0.64%

**Q.** For `O=c1cc(-c2ccc(O)c(O)c2)oc2cc(O)cc(O)c12` [Luteolin (Luteolol)], which relative viability is on record?
**A.** 108 ± 4.5%

**Q.** With `Cn1cc(/C=C/C(=O)c2cccc(F)c2)cc1/C=C/C(=O)NO` [MC1568] as the molecule, how does the relative viability read?
**A.** 100 ± 1.3%

**Q.** `CC(C)C[C@@H](C=O)NC(=O)[C@H](CC(C)C)NC(=O)[C@H](CC(C)C)NC(=O)OCc1ccccc1` [MG-132] was tested. Which relative viability did it give?
**A.** 2 ± 0.3%

**Q.** For `Nc1ccccc1NC(=O)c1ccc(CNc2nccc(-c3cccnc3)n2)cc1` [MGCD0103 (Mocetinostat)], which relative viability is on record?
**A.** 68.6 ± 0.98%

**Q.** With `O=C(CN1C(=O)C2(CCCC2)NC[C@H]1c1cc(F)cc(F)c1)Nc1ccc2c(c1)C[C@@]1(C2)C(=O)Nc2ncccc21` [MK 3207 hydrochloride] as the molecule, how does the relative viability read?
**A.** 102 ± 2%

**Q.** For `O=C(O)CC[C@H]1CC[C@@](c2cc(F)ccc2F)(S(=O)(=O)c2ccc(Cl)cc2)CC1` [MK-0752], which relative viability is on record?
**A.** 106 ± 5.4%
